Measurements: US11578055B2, “Triazacyclododecansulfonamide (“TCD”)-based protein secretion inhibitors” (KEZAR LIFE SCIENCES, priority 2018, dated 2023)
Structures can show the parent of a compound that is named as a salt. Where two headings read alike, the source gives them in different places.

What was measured:
[1] = tested on: PD1 signal sequence plus 10 amino acids fused to Gaussia Luciferase (PD1-ss+10aa/Gaussia Luciferase); assay: Dox Induced PD1-ss-Gluc Assay; format: cell-based; settings: 24 hr, read-out: 24 hr Dox Inducible PD1ssGluc 293FRT/TO: Mean IC50
Procedure, shortened: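 Compound dilutions in DMSO/media containing doxycycline were applied to a stable, inducible 293 T-REx line carrying the luciferase fusion, then incubated at 37 °C, 5% CO2. Where stereochemistry is not drawn, values relate to isomer mixtures.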

[2] = tested on: full length PD1 (amino acids 1-288) fused to Firefly Luciferase; assay: Dox Induced PD1-FL-Gluc Assay; format: cell-based; settings: 24 hr, 293FRT/TO; read-out: 24 hr Dox Inducible PD1FLFluc 293FRT/TO: Mean IC50
Description: FIp-In 293 T-REx™ cells were transfected with pcDNA™5/FRT/TO plasmid inserted with cDNA encoding Firefly Luciferase fused to the 3′ end of cDNA encoding full length PD1 (amino acids 1-288). Transfected cells were selected for resistance to the selectable markers Hygromycin and Blasticidin to create a stable cell line that contained the PD1-FL/Firefly Luciferase cDNA insert whose expression was regulated under the T-REx™ system. The day before assay, cells were trypsinized and plated in 384-well tissue culture plates. The next day, compound dilutions in DMSO/media containing doxycycline were added to the wells and incubated at 37° C., 5% CO2.
For chemical structures that include one or more stereoisomers, but are illustrated without indicating stereochemistry, the assay data refers to a mixture of stereoisomers.

[3] = tested on: full length TNFα (amino acids 1-233) fused to Gaussia Luciferase; assay: Dox Induced TNFα-FL-Gluc Assay; format: cell-based; settings: 24 hr, read-out: 24 hr Dox Inducible TNFaFLGluc 293FRT/TO: Mean IC50
Procedure, shortened: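 Compounds diluted in DMSO/medium with doxycycline were incubated at 37° C, 5% CO2 with 293 T-REx cells stably carrying a Tet-regulated TNFα(1-233)-Gaussia luciferase construct. Data for structures drawn without stereochemistry refer to stereoisomer mixtures.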

[4] = tested on: full length IL-2 (amino acids 1-153) fused to Gaussia Luciferase; assay: Dox Induced IL2-FL-Gluc Assay; format: cell-based; settings: 24 hr, read-out: 24 hr Dox Inducible IL2FLGluc 293FRT/TO: Mean IC50
Procedure, shortened: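 Compounds in DMSO/media with doxycycline were added to cells plated the previous day and incubated at 37° C, 5% CO2. Cells: stable Flp-In 293 T-REx line, Dox-regulated expression of IL-2 (aa 1-153) fused at its C-terminus to Gaussia luciferase.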

[5] = tested on: multiple myeloma cell line NCl-H929; assay: H929 Cell Viability Assay; format: cell-based, human; settings: Homo sapiens, NCI-H929, 48 h
Procedure, shortened: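 Viability was determined by CellTiter-Glo luminescence after a 48 h, 37 °C exposure of NCI-H929 cells to serial compound dilutions in medium containing 10% FBS. Where stereochemistry is not shown, values refer to a mix of stereoisomers.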

[6] = tested on: multiple myeloma cell line U266B1; assay: U266 Cell Viability Assay; format: cell-based, human; settings: Homo sapiens, U-266, 48 hr
Procedure, shortened: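 Viability was measured by CellTiter-Glo luminescence after 48 h compound exposure at 37° C, 5% CO2. The cells were U266B1 multiple myeloma cells grown in RPMI 1640 plus 10% FBS. Where stereochemistry is not shown, values apply to the stereoisomer mixture.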

[7] = In Vitro Microsome Stability Assay (human); format: in vitro ADME
Procedure, shortened: (§1)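 Test article, added from a 0.25 mM DMSO stock, was incubated with liver microsomes (20 mg/mL stock) in 0.1 M potassium phosphate at 37° C, with the reaction started by NADPH. Samples were quenched with acetonitrile containing internal standard at 0 and 30 min and analysed by LC-MS/MS. Values are % remaining at 30 min versus 0 min, using IS-normalised AUC ratios.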

[8] = In Vitro Microsome Stability Assay (mouse); format: in vitro ADME
Procedure, shortened: as §1

[9] = In Vitro Microsome Stability Assay (rat); format: in vitro ADME
Procedure, shortened: as §1

[10] = In Vitro Microsome Stability Assay (monkey); format: in vitro ADME
Procedure, shortened: as §1

[11] = tested on: HER3 signal sequence plus 4 amino acids fused to Gaussia Luciferase (HER3-ss+4aa/Gaussia Luciferase); assay: Dox Induced HER3-ss-Gluc Assay; format: cell-based; settings: 24 hr, doxycycline induced, Flp-In 293 T-REx cells; read-out: 24 hr Dox Inducible Her3(ss + 4) Gluc 293FRT/TO: Mean 1050
Procedure, shortened: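 Stable Flp-In 293 T-REx line expressing HER3 signal sequence+4aa/Gaussia luciferase under doxycycline-inducible control. Cells plated the day before; compound dilutions added in doxycycline-containing medium and incubated at 37° C, 5% CO2.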

[12] = H929, read-out: 48 hr H929 Viability Celltiter-Glo: Mean EC50
[13] = U266, read-out: 48 hr U266 Viability Celltiter-Glo: Mean EC50
[14] = human liver microsomes, 30 min w/ NADPH
[15] = mouse liver microsomes, 30 min w/ NADPH
[16] = rat liver microsomes, 30 min w/ NADPH
[17] = monkey liver microsomes, 30 min w/ NADPH

Structure (SMILES)	IC50 ([1]; 293FRT/TO) [nM]	IC50 [2] [nM]	IC50 ([3]; 293FRT/TO) [nM]	IC50 ([4]; 293FRT/TO) [nM]	EC50 [5, 12] [nM]	EC50 [6, 13] [nM]	Liver Microsome Stability-% Left after 30 min w/ NADPH (%) Human ([7]; human, 30 min, NADPH) [%]	Liver Microsome Stability-% Left after 30 min w/ NADPH (%) Mouse ([8]; mouse, 30 min, NADPH) [%]	Liver Microsome Stability-% Left after 30 min w/ NADPH (%) Rat ([9]; rat, 30 min, NADPH) [%]	Liver Microsome Stability-% Left after 30 min w/ NADPH (%) Monkey ([10]; monkey, 30 min, NADPH) [%]	IC50 ([1]; Dox inducible, 293FRT/TO cells) [nM]	IC50 ([3]; Dox inducible, 293FRT/TO cells) [nM]	IC50 ([4]; Dox inducible, 293FRT/TO cells) [nM]	IC50 [11] [nM]	EC50 ([5]; H929, Celltiter-Glo) [nM]	EC50 ([6]; U266, Celltiter-Glo) [nM]	Liver Microsome Stability-% Left after 30 min w/ NADPH (%) Human [7, 14] [%]	Liver Microsome Stability-% Left after 30 min w/ NADPH (%) Mouse [8, 15] [%]	Liver Microsome Stability-% Left after 30 min w/ NADPH (%) Rat [9, 16] [%]	Liver Microsome Stability-% Left after 30 min w/ NADPH (%) Monkey [10, 17] [%]
C=C1CN(S(=O)(=O)c2ccc(C)cc2)CCCN(CC2CCCCC2)CCCN(S(=O)(=O)c2ccc(C)cc2)C1 [A2]	345	807	> 25000		10100	> 25000	0.04	0.09	0.59	0.09										
C=C1CN(S(=O)(=O)c2ccc(C)cc2)CCCN(CC2CCCCC2)CCCN(S(=O)(=O)c2ccc(OC)cc2)C1 [A3]	241	638	11400		5080	> 25000	0.25	0.09	0.37	0.83										
C=C1CN(S(=O)(=O)c2ccc(C)cc2)CCCN(CC2CCCCC2)CCCN(S(=O)(=O)c2ccc(N(C)C)cc2)C1 [A4]	93.9	311	3760		1220	> 25000	0.25	0.56	1.17	1.17										
C=C1CN(S(=O)(=O)c2c(F)cc(N(C)C)cc2F)CCCN(CC2CCCCC2)CCCN(S(=O)(=O)N2CCC(c3ccccc3)CC2)C1 [A86]		429	> 25000	395	5630	> 25000	41.3	34.1	39.9	29.2										
COc1ccccc1[C@@H]1CCCN(S(=O)(=O)N2CCCN(CC3CCCCC3)CCCN(S(=O)(=O)c3ccc(N(C)C)cc3)C[C@H](C)C2)C1 [A210]											203	> 25000	447	343	> 25000	> 25000	47.4	76.0	54.6	55.4
CN(C)c1ccc(S(=O)(=O)N2CCCN(CC3CCCCC3)CCCN(S(=O)(=O)N3CCc4cc(Cl)ccc4C3)C[C@H]3CC[C@@H]32)cc1 [B22, 4-{[(1S,12R)-10-[(6-chloro-1,2,3,4-tetrahydroisoquinolin-2-yl]sulfonyl]-6-(cyclohexylmethyl)-2,6,10-triazabicyclo[10.2.0]tetradecan-2-yl]sulfonyl}-N,N-dimethylaniline]											31.3	519	80.5	57.8	1650	> 25000	1.77	8.31	10.1	1.77

Second part, the compound after the results:

IC50 ([1]; 293FRT/TO) [nM]	IC50 [2] [nM]	IC50 ([3]; 293FRT/TO) [nM]	IC50 ([4]; 293FRT/TO) [nM]	EC50 [5, 12] [nM]	EC50 [6, 13] [nM]	Liver Microsome Stability-% Left after 30 min w/ NADPH (%) Human ([7]; human, 30 min, NADPH) [%]	Liver Microsome Stability-% Left after 30 min w/ NADPH (%) Mouse ([8]; mouse, 30 min, NADPH) [%]	Liver Microsome Stability-% Left after 30 min w/ NADPH (%) Rat ([9]; rat, 30 min, NADPH) [%]	Liver Microsome Stability-% Left after 30 min w/ NADPH (%) Monkey ([10]; monkey, 30 min, NADPH) [%]	IC50 ([1]; Dox inducible, 293FRT/TO cells) [nM]	IC50 ([3]; Dox inducible, 293FRT/TO cells) [nM]	IC50 ([4]; Dox inducible, 293FRT/TO cells) [nM]	IC50 [11] [nM]	EC50 ([5]; H929, Celltiter-Glo) [nM]	EC50 ([6]; U266, Celltiter-Glo) [nM]	Liver Microsome Stability-% Left after 30 min w/ NADPH (%) Human [7, 14] [%]	Liver Microsome Stability-% Left after 30 min w/ NADPH (%) Mouse [8, 15] [%]	Liver Microsome Stability-% Left after 30 min w/ NADPH (%) Rat [9, 16] [%]	Liver Microsome Stability-% Left after 30 min w/ NADPH (%) Monkey [10, 17] [%]	Structure (SMILES)
1030	1400	> 25000	1170	> 25000	> 25000	0.18	0.21	0.12	0.18											C=C1CN(S(=O)(=O)c2ccc(C)cc2)CCCN(Cc2ccccc2)CCCN(S(=O)(=O)c2ccc(C)cc2)C1 [A1]
365	866	> 25000	624	> 25000	> 25000	0.21	0.18	0.17	0.08											Cc1ccc(S(=O)(=O)N2CCCN(CC3CCCCC3)CCCN(S(=O)(=O)c3ccc(N(C)C)cc3)CC3(CC3)C2)cc1 [A11, 4-{[9-(cyclohexylmethyl)-13-(4-methylbenzenesulfonyl)-5,9,13-triazaspiro[2.11]tetradecan-5-yl]sulfonyl}-N,N-dimethylaniline hydrochloride]
83	244	> 11900		> 25000	> 25000	24.8	20.9	30	13.6											C=C1CN(S(=O)(=O)c2ccc(N(C)C)cc2)CCCN(CC2CCCCC2)CCCN(S(=O)(=O)N2CCC(c3ccccc3)CC2)C1 [A35, 4-{[9-(cyclohexylmethyl)-3-methylidene-5-[(4-phenylpiperidin-1-yl)sulfonyl]-1,5,9-triazacyclododecan-1-yl]sulfonyl}-N,N-dimethylaniline hydrochloride]
